System: T1, Horseradish peroxidase (HRP), soluble HRP
T1 construct: gene PRXC1A; free soluble form
Assay: Lineweaver-Burk; absorbance at […] nm
Assay type: biochemical, Armoracia rusticana
Settings: soluble enzyme; co-substrate H2O2 (standard assay 8 mM); standard assay 20 mM sodium acetate pH 5.5

## COc1ccccc1O [guaiacol]
  Km: 6.9 mM

From paper PMC12670765, “Employment of chia gum and tannic acid as natural products in immobilization of horseradish peroxidase for the removal of azo dye” (BMC Biotechnology, 2025)
